Read-outs that look alike come from different tables or passages of the source.
Columns and labels:
5-HT1B receptor = molecular target: T1, 5-HT1B receptor (Homo sapiens, UniProt P28222); test: cAMP accumulation functional assay at 5-HT1B; type: cell-based; details: agonist, cAMP accumulation, max dose; read-out: 5-HT1B % Act @ Max Dose
T1 construct: expressed in transfected cells
Method: Functional Assay at 5-HT1B. Agonist activity at 5-HT1B was determined using a CAMP accumulation protocol at WuXi AppTec (Hong Kong) Limited according to their standard protocols. Briefly, stably transfected cells were plated in an OptiPlate-384 well plate, incubated at RT for 60 mins, and cAMP standard solution (800 nM, 10 μL) was added to the blank well. Then, 10 μL detection reagent was added to each well, the plate incubated for 60 mins at RT, and the plate read using En Vision.

in vitro [1] = type: in vitro ADME, rat; details: RLM (male Sprague-Dawley) 0.50 mg/mL, NADPH 1 mM, 1 μM compound, pH 7.4, 37° C., 60 min
From the text: RLM Stability Pooled RLM from male Sprague-Dawley rats (Xenotech R1000) were used.

5-HT1A receptor = molecular target: T2, 5-HT1A receptor (Homo sapiens, UniProt P08908); test: cell-based; details: CHO, agonist, Ca2+ flux, CHO cells with Gα15, max dose; read-out: 5-HT1A % Act @ Max Dose
T2 construct: expressed in transfected cells; host or cells: CHO cells, stably transfected
T2 sequence (P08908 1-422): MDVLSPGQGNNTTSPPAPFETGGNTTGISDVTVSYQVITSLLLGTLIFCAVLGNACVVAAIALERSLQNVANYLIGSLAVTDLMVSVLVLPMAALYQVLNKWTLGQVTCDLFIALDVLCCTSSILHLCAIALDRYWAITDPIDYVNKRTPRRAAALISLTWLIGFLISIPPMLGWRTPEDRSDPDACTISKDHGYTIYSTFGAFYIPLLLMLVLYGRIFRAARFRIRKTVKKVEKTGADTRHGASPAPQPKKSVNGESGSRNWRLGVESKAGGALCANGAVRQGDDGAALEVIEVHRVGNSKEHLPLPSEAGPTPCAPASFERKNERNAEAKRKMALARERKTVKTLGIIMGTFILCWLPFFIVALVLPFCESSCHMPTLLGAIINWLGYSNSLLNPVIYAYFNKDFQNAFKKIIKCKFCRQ
Method: (§1) Functional Assays at 5-HT2A, 5-HT2B, and 5-HT1A. Agonist activity at 5-HT2A, 5-HT2B, 5HT2C and 5-HT1A receptors was determined using a FLIPR Ca^2+ flux assay at WuXi AppTec (Hong Kong) Limited according to their standard protocols. Briefly, stably transfected cells expressing the receptor of interest and Gα15 in the case of 5-HT1A (HEK293 for 5-HT2A and 5-HT2B; CHO cells for 5-HT1A) were grown and plated in a 384 well plate and incubated at 37° C. and 5% CO2 overnight. A solution of 250 mM probenecid in 1 mL FLIPR assay buffer was prepared fresh. This was combined with a fluorescent dye (Fluo-4 Direct™) to make a final assay concentration of 2.5 mM. […] The fluorescent dye was then added to the assay plate along with assay buffer to a final volume of 40 μL. The cell plate was incubated for 50 min at 37° C. and 5% CO2 and placed into the FLIPR Tetra along with the compound plate. 10 μL of references and compounds were then transferred from the compound plate into the cell plate and the fluorescent signal was read.

5-HT2B receptor = molecular target: T3, 5-HT2B receptor (Homo sapiens, UniProt P41595); test: cell-based; type: cell-based; details: HEK293, agonist, Ca2+ flux, HEK293, max dose; read-out: 5-HT2B % Act @ Max Dose
T3 construct: expressed in transfected cells; host or cells: HEK293, stably transfected
Method: as §1

5-HT2A receptor [2] = molecular target: T4, 5-HT2A receptor (Homo sapiens, UniProt P28223); test: cell-based; type: cell-based; details: agonist, beta-arrestin recruitment; for EC50: PathHunter, read-out: 5-HT2A Arrestin EC50; for Emax: max dose, read-out: 5-HT2A Arrestin % Act @ Max Dose
Method: Arrestin Functional Assay at 5-HT2A. Recruitment of beta-arrestin was determined using a PathHunter assay at Eurofins DiscoverX (Fremont, CA) according to their standard protocols. PathHunter GPCR beta-arrestin assays take advantage of DiscoverX's proprietary Enzyme Fragment Complementation technology. The GPCR is fused in frame with a small enzyme donor fragment ProLink™ (PK) and co-expressed in cells stably expressing a fusion protein of beta-arrestin and the larger, N-terminal deletion mutant of beta-galactosidase. Activation of the GPCR (5-HT2A receptor in this case) stimulates binding of beta-arrestin to the PK-tagged GPCR and forces complementation of the two enzyme fragments, resulting in the formation of an active beta-galactosidase enzyme. This interaction leads to an increase in enzyme activity that can be measured using chemiluminescent PathHunter Detection Reagents. Briefly, PathHunter cells expressing 5-HT2A receptors were seeded in a volume of 20 μL into 384-well plates and incubated at 37° C. for the appropriate time prior to testing. […] Plates were then imaged on a microplate reader and the agonist activity was calculated using the following formula: % Activity=100%×(mean RLU of test sample-mean RLU of vehicle control)/(mean MAX control ligand-mean RLU of vehicle control), where RLU=relative light units.

5-HT2A receptor [3] = molecular target: T4, 5-HT2A receptor; test: cell-based; type: cell-based; parameters: expressed in transfected cells; host or cells: HEK293, stably transfected; details: HEK293, agonist, Ca2+ flux, HEK293, max dose; read-out: 5-HT2A % Act @ Max Dose
Method: as §1

in vitro [4] = type: in vitro ADME, human; details: HLM 0.50 mg/mL, NADPH 1 mM, 1 μM compound, pH 7.4, 37° C., 60 min
in vitro [5] = type: in vitro ADME, mouse; details: MLM (male CD-1) 0.50 mg/mL, NADPH 1 mM, 1 μM compound, pH 7.4, 37° C., 60 min
From the text: MLM Stability Pooled MLM from male CD-1 mice (BIOIVT M00501) were used.

5-HT2A receptor [6] = molecular target: T4, 5-HT2A receptor; test: biochemical; type: binding; parameters: expressed in transfected cells; host or cells: HEK293, stably transfected; details: radioligand binding, 5-HT2A
Summary of the method: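 Test compounds competed with [^3H]ketanserin for receptor binding, and affinity was derived from the radioligand displacement.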

T4 sequence (P28223 whole entry, the tested form may be a part): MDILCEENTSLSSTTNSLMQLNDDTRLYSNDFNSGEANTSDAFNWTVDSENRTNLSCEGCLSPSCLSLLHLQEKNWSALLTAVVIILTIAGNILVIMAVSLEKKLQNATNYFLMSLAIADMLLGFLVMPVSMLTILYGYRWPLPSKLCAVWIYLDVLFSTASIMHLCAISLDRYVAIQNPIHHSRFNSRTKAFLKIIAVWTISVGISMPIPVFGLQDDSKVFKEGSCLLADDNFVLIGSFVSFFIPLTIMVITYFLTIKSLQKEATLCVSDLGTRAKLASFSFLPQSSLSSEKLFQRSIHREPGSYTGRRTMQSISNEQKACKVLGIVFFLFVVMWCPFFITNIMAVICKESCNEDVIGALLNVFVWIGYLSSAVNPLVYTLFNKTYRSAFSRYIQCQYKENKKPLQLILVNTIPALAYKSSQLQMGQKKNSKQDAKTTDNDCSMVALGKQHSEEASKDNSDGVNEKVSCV
T1 sequence (P28222 whole entry): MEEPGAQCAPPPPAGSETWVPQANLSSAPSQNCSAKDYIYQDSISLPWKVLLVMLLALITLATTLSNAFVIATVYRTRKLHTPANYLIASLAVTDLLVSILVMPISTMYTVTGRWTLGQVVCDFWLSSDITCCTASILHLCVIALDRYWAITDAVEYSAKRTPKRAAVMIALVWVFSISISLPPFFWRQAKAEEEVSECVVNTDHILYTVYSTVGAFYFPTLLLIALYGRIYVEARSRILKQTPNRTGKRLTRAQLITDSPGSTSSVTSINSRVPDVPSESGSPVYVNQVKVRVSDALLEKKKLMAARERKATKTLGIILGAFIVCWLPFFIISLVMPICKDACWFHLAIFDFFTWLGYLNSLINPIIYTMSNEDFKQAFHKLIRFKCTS
T3 sequence (P41595 whole entry): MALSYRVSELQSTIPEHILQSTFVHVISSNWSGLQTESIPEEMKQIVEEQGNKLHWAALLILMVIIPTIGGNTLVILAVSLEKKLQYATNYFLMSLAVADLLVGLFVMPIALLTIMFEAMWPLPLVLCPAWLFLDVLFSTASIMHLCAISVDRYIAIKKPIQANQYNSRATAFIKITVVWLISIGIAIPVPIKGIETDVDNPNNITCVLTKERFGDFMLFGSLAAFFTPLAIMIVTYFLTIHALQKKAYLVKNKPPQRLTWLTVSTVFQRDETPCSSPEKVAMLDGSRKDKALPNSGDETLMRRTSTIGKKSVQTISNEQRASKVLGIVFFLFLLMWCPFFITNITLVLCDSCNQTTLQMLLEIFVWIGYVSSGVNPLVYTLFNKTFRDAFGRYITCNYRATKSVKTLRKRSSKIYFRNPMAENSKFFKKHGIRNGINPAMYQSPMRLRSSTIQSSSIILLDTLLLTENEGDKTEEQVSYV

Row | Structure (SMILES) | Emax (5-HT1B receptor) [%] | Intrinsic clearance (Clint) (in vitro [1]) [µL/min/mg] | half-life (t1/2) (in vitro [1]) [min] | Emax (5-HT1A receptor) [%] | Emax (5-HT2B receptor) [%] | EC50 (5-HT2A receptor [2]) [nM] | Emax (5-HT2A receptor [2]) [%] | Emax (5-HT2A receptor [3]) [%] | Intrinsic clearance (Clint) (in vitro [4]) [µL/min/mg] | half-life (t1/2) (in vitro [4]) [min] | Intrinsic clearance (Clint) (in vitro [5]) [µL/min/mg] | half-life (t1/2) (in vitro [5]) [min] | potency in receptor binding (5-HT2A receptor [6])
1 | CCN(CC)C(=O)[C@@H]1C=C2c3cccc4[nH]cc(c34)C[C@H]2N(Cc2ccccn2)C1 [Compound 22, (6aR,9R)—N,N-diethyl-7-(pyridin-2-ylmethyl)-4,6,6a,7,8,9-hexahydroindolo[4,3-fg]quinoline-9-carboxamide] | 89.2 | 104.8 | 13.2 | 57.3 | 7.74 | 6.33 | 40.6 | 64.5 | 58.2 | 23.8 | 150.0 | 9.2 | –
2 | CCN(CC)C(=O)[C@@H]1C=C2c3cccc4[nH]cc(c34)C[C@H]2N(Cc2ccccc2O)C1 [Compound 16, (6aR,9R)—N,N-diethyl-7-(2-hydroxybenzyl)-4,6,6a,7,8,9-hexahydroindolo[4,3-fg]quinoline-9-carboxamide] | 90.1 | 616.3 | 2.2 | 22.3 | 26.5 | 3.96 | 47.6 | 62 | 285.8 | 4.9 | 1053.2 | 1.3 | –
3 | CCN(CC)C(=O)[C@@H]1C=C2c3cccc4[nH]cc(c34)C[C@H]2N(CCc2ccccn2)C1 [Compound 23, (6aR,9R)—N,N-diethyl-7-(2-(pyridin-2-yl)ethyl)-4,6,6a,7,8,9-hexahydroindolo[4,3-fg]quinoline-9-carboxamide] | 83.7 | 331.7 | 4.2 | 46.2 | 12.5 | 5.97 | 65.2 | 85.4 | 193.3 | 7.2 | 768.7 | 1.8 | –
4 | CCCN1C[C@H](C(=O)N(CC)CC)C=C2c3cccc4c3C(CN4)C[C@H]21 (mixture of isomers) [Compound 36, (6aR,9R)—N,N-diethyl-7-propyl-4,5,5a,6,6a,7,8,9-octahydroindolo[4,3-fg]quinoline-9-carboxamide] | 97.5 | – | – | 88.7 | 111 | – | – | 77.5 | – | – | – | – | reduced in potency compared to their dehydro counterparts
5 | CCN(CC)C(=O)[C@@H]1C=C2c3cccc4[nH]cc(c34)C[C@H]2N(CCc2cccc(OC)c2)C1 [Compound 20, (6aR,9R)—N,N-diethyl-7-(3-methoxyphenethyl)-4,6,6a,7,8,9-hexahydroindolo[4,3-fg]quinoline-9-carboxamide] | 34.6 | 1147.6 | 1.2 | 3.85 | 3.6 | 1.79 | 83.5 | 77.2 | 649.2 | 2.1 | 1548.2 | 0.9 | –
6 | C[C@H]1C[C@H](C)N1C(=O)[C@@H]1C=C2c3cccc4[nH]cc(c34)C[C@H]2N(CCCF)C1 [Compound 26, ((2S,4S)-2,4-dimethylazetidin-1-yl)((6aR,9R)-7-(3-fluoropropyl)-4,6,6a,7,8,9-hexahydroindolo[4,3-fg]quinolin-9-yl)methanone] | 77.2 | – | – | 97.9 | 101 | – | – | 83.2 | – | – | – | – | –
7 | C=CCN1C[C@H](C(=O)N2[C@@H](C)C[C@@H]2C)C=C2c3cccc4[nH]cc(c34)C[C@H]21 [Compound 27, ((6aR,9R)-7-allyl-4,6,6a,7,8,9-hexahydroindolo[4,3-fg]quinolin-9-yl)((2S,4S)-2,4-dimethylazetidin-1-yl)methanone] | 96.9 | – | – | 90.8 | 96 | – | – | 81.1 | – | – | – | – | –
8 | CCN(CC)C(=O)[C@@H]1C=C2c3cccc4c3C(CN4)C[C@H]2N(C)C1 (mixture of isomers) [Compound 37, (6aR,9R)—N,N-diethyl-7-methyl-4,5,5a,6,6a,7,8,9-octahydroindolo[4,3-fg]quinoline-9-carboxamide] | 90.7 | – | – | 109 | 24.1 | – | – | 76.4 | – | – | – | – | reduced in potency compared to their dehydro counterparts
9 | CCN(CC)C(=O)[C@@H]1C=C2c3cccc4[nH]cc(c34)C[C@H]2N(CCc2ccc(OC)cc2)C1 [Compound 21, (6aR,9R)—N,N-diethyl-7-(4-methoxyphenethyl)-4,6,6a,7,8,9-hexahydroindolo[4,3-fg]quinoline-9-carboxamide] | 79.1 | 323.2 | 4.3 | 8.2 | 1.73 | 5.85 | 93.7 | 51.2 | 367.7 | 3.8 | 717.4 | 1.9 | –
10 | CCN(CC)C(=O)[C@@H]1C=C2c3cccc4[nH]c(Br)c(c34)C[C@H]2N(CCCF)C1 [Compound 41, (6aR,9R)-5-bromo-N,N-diethyl-7-(3-fluoropropyl)-4,6,6a,7,8,9-hexahydroindolo[4,3-fg]quinoline-9-carboxamide] | 61.5 | – | – | 39.8 | 84.5 | – | – | 75.4 | – | – | – | – | –
11 | CN1C[C@H](C(=O)N(CCF)CCF)C=C2c3cccc4[nH]cc(c34)C[C@H]21 [Compound 38, (6aR,9R)—N,N-bis(2-fluoroethyl)-7-methyl-4,6,6a,7,8,9-hexahydroindolo[4,3-fg]quinoline-9-carboxamide] | 94.7 | – | – | 90.5 | 28.1 | – | – | 93.4 | – | – | – | – | –

From patent publication US20260317319A1, “NOVEL ERGOLINES AND METHODS OF TREATING MOOD DISORDERS” (Gilgamesh Pharma Inc., priority 2023, published 2026)
